Results from PubChem BioAssay (NCI).
Several values for one entry are separate records, joined by “and”; a condition that tells them apart may be missing. Identical values can stand only once.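 Method: 48-hour compound exposure of cells in 96-well plates, five concentrations, linear interpolation of endpoints. Abbreviation: GI50, concentration required for 50% inhibition of growth. TGI: total growth inhibition.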

How the values were obtained:
Assay in all cases: DTP human tumour cell line panel, 48 h
HT29 colon = tested on: HT29 colon
MCF7 breast = tested on: MCF7 breast
OVCAR-8 ovarian = tested on: OVCAR-8 ovarian
SR leukemia = tested on: SR leukemia
SNB-75 CNS = tested on: SNB-75 CNS
SK-OV-3 ovarian = tested on: SK-OV-3 ovarian
EKVX NSCLC = tested on: EKVX NSCLC
UACC-62 melanoma = tested on: UACC-62 melanoma
LOX IMVI melanoma = tested on: LOX IMVI melanoma
HS 578T breast = tested on: HS 578T breast

SMILES	GI50 (HT29 colon) [µM]	TGI (HT29 colon)	GI50 (MCF7 breast) [µM]	TGI (MCF7 breast)	GI50 (OVCAR-8 ovarian) [µM]	TGI (OVCAR-8 ovarian)	GI50 (SR leukemia) [µM]	TGI (SR leukemia)	GI50 (SNB-75 CNS) [µM]	TGI (SNB-75 CNS)	GI50 (SK-OV-3 ovarian) [µM]	TGI (SK-OV-3 ovarian)	GI50 (EKVX NSCLC) [µM]	TGI (EKVX NSCLC)	GI50 (UACC-62 melanoma) [µM]	TGI (UACC-62 melanoma)	TGI (LOX IMVI melanoma)	GI50 (HS 578T breast) [µM]	TGI (HS 578T breast)	GI50 (LOX IMVI melanoma) [µM]
CN[C@@H]1C[C@H]2O[C@@](C)([C@@H]1OC)n1c3ccccc3c3c4c(c5c6ccccc6n2c5c31)C(=O)N[C@H]4O	0.0827	1.38 µM	0.0283	1.51 µM	0.0885	> 5.44 µM	0.0336	1.92 µM	0.00564	0.0412 µM	0.0337	0.298 µM	0.059	> 10 µM	0.0134	0.231 µM	1.09 µM	0.0191	0.143 µM	–
CSc1n(Cc2ccc3ccccc3c2)c(C)c[n+]1Cc1ccc2ccccc2c1	0.431	1.6 µM	0.505	1.88 µM	0.417	1.6 µM	0.363	2.52 µM	0.342	1.49 µM	1.18	2.61 µM	1.4	3.83 µM	0.519	1.82 µM	1.9 µM	1.02	2.7 µM	0.591
COc1ccc2c(c1)CCc1[nH]nc(-c3cc(OC)c(OC)c(OC)c3)c1-2	< 0.01	10.1 µM	< 0.01	12.9 µM	< 0.01	15.4 µM	< 0.01	22.9 µM	< 0.01	26.1 µM	< 0.01	< 0.01 µM	–	–	< 0.01	13 µM	11.8 µM	< 0.01	22.3 µM	< 0.01
Cc1cc([N+](=O)[O-])ccc1NS(=O)(=O)c1cc(Cl)ccc1Cl	3.81	> 100 µM	2.51	> 49.4 µM	3.65	> 100 µM	4.52	27.6 µM	2.98	38.3 µM	2.51	8.63 µM	–	–	1.29	17.9 µM	13 µM	4.23	60.5 µM	3.44
CC(=O)C1COC(O)C1C (stereo not drawn)	–	> 100 µM	–	67.3 µM	–	46 µM	–	40.1 µM	–	70.4 µM	–	82.3 µM	–	> 100 µM	–	27.2 µM	39.4 µM	–	68.8 µM	–
CCOc1ccc2nc(-c3cccc(OCC(=O)NC(C)C)c3)nc(Nc3ccc(-c4cn[nH]c4)cc3)c2c1	0.751	5.09 µM	0.348	2.11 µM	0.586	4.76 µM	1.13	> 43 µM	1.16	2.48 µM	4.53	13 µM	1.22	8.34 µM	1.21	4.16 µM	2.33 µM	0.132	1.72 µM	0.491
OC(C1CO1)C(O)C1CO1 (stereo not drawn)	97.7	150 µM and 345 µM	3.89	140 µM and 78.2 µM	–	115 µM and 453 µM	–	72.2 µM and 528 µM	32.2	116 µM and 166 µM	5.68	95.2 µM and 186 µM	175	150 µM and 348 µM	–	72.1 µM and 130 µM	78.3 µM and 233 µM	39.3	150 µM and 392 µM	12
Cc1cc(Oc2cnc(=O)[nH]c2)cs1	–	> 100 µM	–	> 100 µM	–	> 100 µM	–	> 100 µM	–	> 100 µM	–	> 100 µM	–	> 100 µM	–	> 100 µM	> 100 µM	–	> 100 µM	–
Fc1cccc(CSc2ncnc3c2ncn3C2CCCS2)c1 (stereo not drawn)	–	32.7 µM	–	63.7 µM	–	75.7 µM	–	34 µM	–	65.6 µM	–	> 100 µM	–	81.2 µM	–	28.8 µM	34.9 µM	–	> 100 µM	–
CC1(C)CCC[C@]2(C)c3cc(O)ccc3CC[C@@H]12	23.2	43.7 µM	13.3	37.1 µM	21.7	41.1 µM	8.72	> 100 µM	12.4	27.5 µM	–	–	21.5	36.7 µM	13.1	25.8 µM	33.7 µM	15.6	31.3 µM	16.9
CN1CCN(C(=O)c2c(NC(=O)NS(=O)(=O)c3ccccc3)sc3c2CCCCC3)CC1	–	–	52.7	> 100 µM	53.5	> 100 µM	27.5	> 100 µM	–	–	–	–	33.7	98.7 µM	23	60 µM	84.9 µM	40.3	> 100 µM	30
COc1cc(-c2csc(NC(=O)Nc3cc(C(F)(F)F)cc(C(F)(F)F)c3)n2)cc(OC)c1OC	2.67	11.2 µM	2.41	11.8 µM	2.73	13 µM	–	–	2.27	10.6 µM	2.59	8.57 µM	2.38	13.9 µM	1.59	4.53 µM	12.3 µM	2.24	6.9 µM	3.04
O=C(Nc1ccc2[nH]c(C(=O)N3CC(CCl)c4c3cc([N+](=O)[O-])c3ccccc43)cc2c1)c1cc2ccccc2o1 (stereo not drawn)	> 1100	> 1100 µM	> 1100	> 1100 µM	> 1100	> 1100 µM	35.2	> 1100 µM	–	–	> 1100	> 1100 µM	> 1100	> 1100 µM	> 1100	> 1100 µM	> 1100 µM	> 1100	> 1100 µM	> 1100
O=CC(Br)C(Br)c1ccccc1 (stereo not drawn)	1.71	3.19 µM	0.478	2.23 µM	2.95	10.2 µM	0.445	2.81 µM	7.69	20.9 µM	16.6	30.3 µM	–	–	1.79	3.74 µM	1.83 µM	8.81	43.9 µM	0.665
